In patent publication US9643963B2, “Antiparasitic compounds” (Avista Pharma Solutions, Inc., priority 2013, dated 2017):

Test system: Dirofilaria immitis
Assay: Dirofilaria immitis microfilariae motility assay or L4 stage assay (the source does not say which gave the EC50 values)
Assay type: cell-based
Settings: 72 h, read-out: EC50 values

SMILES | EC50
CC(C)(C)COc1ccnc(-c2nsc(NC(=O)c3ccc(C(F)(F)F)cc3)n2)c1 [Compound 143, N-[3-[4-(2,2-dimethylpropoxy)-2-pyridyl]-1,2,4-thiadiazol-5-yl]-4-(trifluoromethyl)benzamide] | < 5 µM
O=C(Nc1nc(-c2ccccn2)ns1)c1ccc(NCc2ccccc2)cc1 [Compound 118, 4-(benzylamino)-N-[3-(2-pyridyl)-1,2,4-thiadiazol-5-yl]benzamide] | < 5 µM
O=C(Nc1nc(-c2ccccn2)ns1)c1ccc(NC2CCNCC2)cc1 [Compound 79, 4-(4-piperidylamino)-N-[3-(2-pyridyl)-1,2,4-thiadiazol-5-yl]benzamide] | < 5 µM
CC(C)(C)OC(=O)N1CCN(C(=O)c2ccc(C(=O)Nc3nc(-c4ccccn4)ns3)cc2)CC1 [Compound 70, tert-butyl 4-[4-[[3-(2-pyridyl)-1,2,4-thiadiazol-5-yl]carbamoyl]benzoyl]piperazine-1-carboxylate] | < 5 µM
O=C(Nc1nc(-c2cccc(-c3cccnc3)n2)ns1)c1ccc(C(F)(F)F)cc1 [Compound 116, N-[3-[6-(3-pyridyl)-2-pyridyl]-1,2,4-thiadiazol-5-yl]-4-(trifluoromethyl)benzamide] | < 5 µM
O=C(Nc1nc(-c2ccccn2)ns1)c1ccc(I)cc1 [Compound 67, 4-iodo-N-[3-(2-pyridyl)-1,2,4-thiadiazol-5-yl]benzamide] | < 5 µM
O=C(Nc1nc(-c2ccccn2)ns1)c1ccc(C(=O)N2CCCCC2)cc1 [Compound 72, 4-(piperidine-1-carbonyl)-N-[3-(2-pyridyl)-1,2,4-thiadiazol-5-yl]benzamide] | < 5 µM
O=C(Nc1nc(-c2ccccn2)ns1)c1cccc(Nc2ccccc2)c1 [Compound 119, 3-anilino-N-[3-(2-pyridyl)-1,2,4-thiadiazol-5-yl]benzamide] | < 5 µM
O=C(Nc1nc(-c2ccccn2)ns1)c1ccc(Cc2ccccc2)cc1 [Compound 89, 4-benzyl-N-[3-(2-pyridyl)-1,2,4-thiadiazol-5-yl]benzamide] | < 5 µM
